Reference: patent publication US10687525B2, “Enhancement of cell cryopreservation with glycolipids” (TISSUE TESTING TECHNOLOGIES LLC, priority 2016, dated 2020)

Tested on: keratinocytes
Experiment: Cell viability of keratinocytes after cryopreservation in 10% DMSO in RPMI (alamarBlue)
Type: cell-based
Conditions: keratinocytes cryopreserved in vials or culture plates in 10% DMSO in RPMI
Procedure: In the results discussed below, measurement of Cell Viability and Proliferation in FIGS. 1-4 employed AlamarBlue™ by measuring the oxidation/reduction reactions that take place within cells. AlamarBlue™ was added directly to the plates containing cultured cells in culture medium and incubated for 3 hours at 37° C. Upon reduction, AlamarBlue™ changes color and this color change can be measured and quantified. The culture plates were read using a Gemini EM fluorescent microplate reader ([…]) at an excitation wavelength of 544 nm and an emission wavelength of 590 nm. […] Keratinocytes were cryopreserved in vials or in culture plates in 10% DMSO in RPMI. Metabolic activity was measured immediately after thawing and for several days post thaw. Cell viability (in percent of untreated controls) was calculated as the mean (±SEM) of 120 replicates.

Structure (SMILES): C[S+](C)[O-] [DMSO, dimethyl sulfoxide]
- cell yields after cryopreservation (cell viability in percent of untreated controls): below 50%
